Measured values reported in patent US5905074A, “Vitamin D derivative” (Hoffmann-La Roche Inc., priority 1995, dated 1999).

How the values were obtained:
[1] = system: HL-60 cells; test: HL-60 differentiation (NBT reduction, oxidative burst potential); type: cell-based; details: Homo sapiens, HL-60, 72 h; 3 days; 50% of maximal differentiation achieved with 100-1000 nM calcitriol
Protocol: The induction of differentiation of HL-60 cells was assayed by measuring their oxidative burst potential via the reduction of NBT (Nitro-bluetetraolium) according to a modified procedure of E. Pick et al. in J. Reticul.
30,000 cells/90 μl of RPMI/FCS were seeded into flat-bottomed microtiter wells. Immediately after seeding, 10 μl of vitamin D derivatives diluted in complete medium (RPMI/FCS) were added to yield final concentrations between 10^-11 and 10^-6 M (starting from 1 mM stock solutions in ethanol which were stored at -20° and protected from light). After 3 days, the medium was removed with a multichannel pipette and replaced with 100 μl of NBT solution (1 mg/ml in Dulbecco's PBS with 200 nM phorbol myristate acetate (PMA)). Following an incubation of 1 hour at 37° C. the NBT solution was removed and 100 μl of 10% SDS in 0.01N HCl was added. After further incubation at 37° C. for 6 hours (or more), the amount of the reduced NBT was quantified photometrically at 540 nm using an automated plate reader. The mean of 3 wells was calculated.
Values were expressed as percent of maximal differentiation achieved with 100-1000 nM calcitriol in the same experiment.

[2] = Calcium liability (tolerance test in mice); details: mouse, in vivo, sc; daily subcutaneous, 4 consecutive days; dose resulting in zero weight gain during 5 day treatment period; read-out: highest tolerated dose (mice)
From the text: This routine test gives a global picture of calcemic liability. Profound changes in calcium homeostasis strongly affect the weight development of the animals. This parameter was used as a primary test for tolerance.
Mice (25-30 g body weight) received daily subcutaneous administrations of the vitamin D derivative for 4 consecutive days. Body weight was registered just before and at the end of a […] treatment period. The "highest tolerated dose" (HTD) in mice is the dose which results in zero weight gain during this treatment period.

[3] = biological target: T1, human VDR (Homo sapiens, UniProt P11473); test: VDR activation (transcription activation assay, luciferase reporter); type: cell-based; details: half-maximal induction of luciferase activity
T1 construct: expressed in transfected cells; host or cells: COS cells or CV-1 cells (VDR expressed in pSG5)
T1 sequence (P11473 1-427): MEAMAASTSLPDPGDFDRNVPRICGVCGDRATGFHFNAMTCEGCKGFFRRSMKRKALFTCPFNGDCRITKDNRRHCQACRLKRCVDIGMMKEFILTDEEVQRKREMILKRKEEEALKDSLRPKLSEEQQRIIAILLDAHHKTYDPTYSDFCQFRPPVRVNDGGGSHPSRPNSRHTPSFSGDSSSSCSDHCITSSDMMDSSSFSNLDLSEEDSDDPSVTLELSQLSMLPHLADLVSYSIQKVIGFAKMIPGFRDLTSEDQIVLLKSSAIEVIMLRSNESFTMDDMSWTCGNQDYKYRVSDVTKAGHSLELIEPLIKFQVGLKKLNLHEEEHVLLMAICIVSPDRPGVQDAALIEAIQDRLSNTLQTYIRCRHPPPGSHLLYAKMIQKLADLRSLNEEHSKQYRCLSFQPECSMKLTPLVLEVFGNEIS
From the text: In order to measure the activation of the vitamin D receptor (VDR) by vitamin D analogs in cells a transcription activation assay was used. COS cells or CV-1 cells were cotransfected with the human VDR (expressed in pSG5) and a reporter gene containing three response elements (VDRE3) from the rat osteocalcine gene, the thymidine kinase basal promoter, and the luciferase reporter gene.

`C=C1/C(=C\C=C2/CCC[C@]3(C)[C@@H]([C@H](C)CCCC(C)(C)O)CC[C@@H]23)C[C@@H](O)C[C@@H]1O` [Calcitriol, reference compound] gave an EC50 [1] of 5 nM.

`C=C1/C(=C\C=C2/CCC[C@]3(C)[C@@H]([C@H](C)CCCC(C)(C)O)CCC[C@@H]23)C[C@@H](O)C[C@@H]1O` [Compound of formula I, (1R,3S)-5-[(Z)-2-[(E)-(4aR,5R,8aR)-5-[(R)-5-Hydroxy-1,5-dimethyl-hexyl]-4a-methyl-octahydro-naphtalen-1-ylidene]-ethylidene]-4-methylene-cyclohexane-1,3-diol] showed an EC50 [1] of 0.37 nM, an MTD [2] of 0.6 µg/kg and an EC50 ([3]; COS cells) of 1.2 nM. The EC50 ([3]; CV-1 cells) was 0.04 nM.
